From US20180325914A1, “INCREASING STORAGE OF VITAMIN A, VITAMIN D AND/OR LIPIDS” (Salk Institute for Biological Studies, priority 2014, published 2018)

Tested on: primary HSCs
Conditions: Day_6_JQ1

In the case of `Cc1sc2c(c1C)C(c1ccc(Cl)cc1)=N[C@@H](CC(=O)OC(C)(C)C)c1nnc(C)n1-2` [JQ1, (S)-tert-butyl 2-(4-(4-chlorophenyl)-2,3,9-trimethyl-6H-thieno[3,2-f][1,2,4]triazolo[4,3-a][1,4]diazepin-6-yl)acetate], the “1110067D22Rik value_2” value is reported as 7.6991, the “9930013L23Rik value_2” value is reported as 31.3095 and the “A430110N23Rik value_2” value is reported as 1.529. For the same compound, the “Acot11 value_2” value was 1.6538, the “Acpl2 value_2” value was 7.205 and the “Adam8 value_2” value was 11.9385. For the same compound, the “Adamts12 value_2” value was 17.1447, the “Adcy1 value_2” value was 0.8092 and the “Adcy5 value_2” value was 0.9801. The “Adcy7 value_2” value was 3.439, the “Aif1l value_2” value was 1.208 and the “Akap5 value_2” value was 1.478. For the same compound, the “Aldh1a2 value_2” value was 19.1605, the “Aldh1l1 value_2” value was 1.536 and the “Aldh1l2 value_2” value was 7.698. The “Ankrd55 value_2” value was 7.519, the “Apbb1ip value_2” value was 18.5518 and the “Apbb1 value_2” value was 7.273. The “Arhgef6 value_2” value was 2.025, the “Arhgef25 value_2” value was 25.9937 and the “Arl5a value_2” value was 37.4802. For the same compound, the “Arsb value_2” value was 16.7663, the “Avpr1a value_2” value was 1.651 and the “B3galnt1 value_2” value was 2.653. For the same compound, the “B4galt2 value_2” value was 15.1944, the “Bag2 value_2” value was 14.4878 and the “Bdnf value_2” value was 4.6088. The “Bnip3 value_2” value was 18.6877, the “Boc value_2” value was 14.1708 and the “Cacng7 value_2” value was 2.276. For the same compound, the “Casp12 value_2” value was 4, the “Ccbe1 value_2” value was 26.2027 and the “Ccnd2 value_2” value was 143.49. For the same compound, the “Ccng1 value_2” value was 163.356, the “Cd276 value_2” value was 5.674 and the “Cdh11 value_2” value was 17.4722. For the same compound, the “Celf2 value_2” value was 11.1573, the “Cercam value_2” value was 9.775 and the “Chpf value_2” value was 51.0364. The “Chst12 value_2” value was 44.2429, the “Chsy3 value_2” value was 4.1726 and the “Cnrip1 value_2” value was 15.1406. The “Col1a1 value_2” value was 830.694, the “Col4a5 value_2” value was 36.069 and the “Col12a1 value_2” value was 37.8465. For the same compound, the “Col16a1 value_2” value was 5.064, the “Copz2 value_2” value was 47.0355 and the “Cplx2 value_2” value was 3.358. For the same compound, the “Crispld2 value_2” value was 4.912, the “Crlf1 value_2” value was 26.6612 and the “Csrp2 value_2” value was 137.115. For the same compound, the “Cul7 value_2” value was 19.1665, the “Cxx1c value_2” value was 13.5431 and the “D4Bwg0951e value_2” value was 30.19. For the same compound, the “Ddah1 value_2” value was 10.4898, the “Dhrs1 value_2” value was 30.0462 and the “Dmpk value_2” value was 26.4788. The “Dnpep value_2” value was 41.0591, the “Dpysl3 value_2” value was 14.2712 and the “Dynlrb1 value_2” value was 162.462. For the same compound, the “Dzip1l value_2” value was 10.8578, the “Emp2 value_2” value was 8.903 and the “Enpp5 value_2” value was 25.6268. The “Ext1 value_2” value was 80.2965, the “Extl3 value_2” value was 35.6167 and the “Fah value_2” value was 1.793. For the same compound, the “Fam19a5 value_2” value was 1.344, the “Fam20a value_2” value was 11.2001 and the “Fam38b value_2” value was 3.39. The “Fam110c value_2” value was 13.4372, the “Fam132a value_2” value was 4.331 and the “Fap value_2” value was 1.601. For the same compound, the “Fbxw9 value_2” value was 14.3107, the “Fkbp7 value_2” value was 40.2493 and the “Fmod value_2” value was 2.369. For the same compound, the “Fndc1 value_2” value was 15.189, the “Fndc4 value_2” value was 1.244 and the “Folr1 value_2” value was 1.905. The “Foxc2 value_2” value was 1.453, the “Foxf2 value_2” value was 1.6602 and the “Frzb value_2” value was 144.416. For the same compound, the “Fstl3 value_2” value was 14.8692, the “Fzd6 value_2” value was 2.328 and the “Gdf6 value_2” value was 25.9944. The “Gm2a value_2” value was 22.5206, the “Gm14420 value_2” value was 13.7546 and the “Gmpr value_2” value was 8.026. The “Gpc1 value_2” value was 10.285, the “Gpc4 value_2” value was 94.2819 and the “Gpr39 value_2” value was 22.0499. For the same compound, the “Gpr133 value_2” value was 3.842, the “Gpr180 value_2” value was 14.9448 and the “Gria4 value_2” value was 2.6. The “Gys1 value_2” value was 11.4841, the “Hk2 value_2” value was 9.851 and the “Hoxb2 value_2” value was 33.6747. The “Hrct1 value_2” value was 3.228, the “Hs6st2 value_2” value was 23.4423 and the “Hspb1 value_2” value was 104.396. For the same compound, the “Hspg2 value_2” value was 105.328, the “Igf2 value_2” value was 3.249 and the “Igfbp2 value_2” value was 2.5845. The “Iglon5 value_2” value was 2.148, the “Ikbip value_2” value was 68.3911 and the “Itga5 value_2” value was 44.6427. The “Jub value_2” value was 23.4821, the “Kank1 value_2” value was 15.8777 and the “Kazald1 value_2” value was 4.522. For the same compound, the “Kcne4 value_2” value was 8.547, the “Kdm5b value_2” value was 17.3352 and the “Kif21b value_2” value was 8.145. For the same compound, the “Kif26b value_2” value was 3.17, the “Klhl26 value_2” value was 25.6223 and the “Lclat1 value_2” value was 20.6695. The “Lepre1 value_2” value was 61.4792, the “Leprel1 value_2” value was 4.84 and the “Leprel2 value_2” value was 31.892. The “Lgals1 value_2” value was 1464.5, the “Lims2 value_2” value was 12.2591 and the “Lox13 value_2” value was 12.0376. The “Loxl1 value_2” value was 78.0679, the “Loxl2 value_2” value was 668.398 and the “Lrrn2 value_2” value was 1.8093. The “Mageh1 value_2” value was 22.8542, the “Man2b2 value_2” value was 26.9926 and the “Mpzl1 value_2” value was 88.2456. The “Mrvi1 value_2” value was 2.602, the “Myh10 value_2” value was 34.498 and the “Myh11 value_2” value was 6.328. The “Myl6 value_2” value was 531.936, the “Mylk value_2” value was 62.0714 and the “Myo1d value_2” value was 22.5024. For the same compound, the “Myof value_2” value was 42.2087, the “Ncam1 value_2” value was 8.073 and the “Ndrg2 value_2” value was 12.6911. For the same compound, the “Nexn value_2” value was 6.343, the “Nid2 value_2” value was 130.153 and the “Nts value_2” value was 3.21. For the same compound, the “Numbl value_2” value was 22.4916, the “Obsl1 value_2” value was 3.108 and the “P4ha1 value_2” value was 120.896. For the same compound, the “Palld value_2” value was 17.5752, the “Pcsk5 value_2” value was 4.88 and the “Pde1a value_2” value was 9.282. The “Pdlim4 value_2” value was 4.7862, the “Pfkfb4 value_2” value was 2.359 and the “Phlda3 value_2” value was 132.249. The “Phldb2 value_2” value was 149.373, the “Phyhd1 value_2” value was 3.552 and the “Pla2g15 value_2” value was 24.3031. For the same compound, the “Plac8 value_2” value was 104.172, the “Plekhg3 value_2” value was 18.1798 and the “Plp2 value_2” value was 16.6661. The “Plscr2 value_2” value was 7.544, the “Plscr4 value_2” value was 8.1813 and the “Pmepa1 value_2” value was 29.4329. For the same compound, the “Pmm1 value_2” value was 54.8681, the “Pmp22 value_2” value was 85.9788 and the “Podn value_2” value was 1.458. For the same compound, the “Polr3k value_2” value was 22.8928, the “Pon3 value_2” value was 19.5497 and the “Popdc2 value_2” value was 4.263. For the same compound, the “Ppapdc1b value_2” value was 13.4067, the “Ppp1r14a value_2” value was 20.201 and the “Pppde2 value_2” value was 20.4808. The “Prdx2 value_2” value was 167.804, the “Prickle1 value_2” value was 14.268 and the “Prrc1 value_2” value was 19.9334. For the same compound, the “Psrc1 value_2” value was 6.874, the “Pter value_2” value was 1.743 and the “Ptpla value_2” value was 12.4632. For the same compound, the “Ptplad2 value_2” value was 8.106, the “Pvrl2 value_2” value was 81.9103 and the “Pygl value_2” value was 3.275. For the same compound, the “Rab7l1 value_2” value was 5.901, the “Rab15 value_2” value was 1.498 and the “Rab34 value_2” value was 55.2701. For the same compound, the “Rab3d value_2” value was 8.99, the “Rftn2 value_2” value was 1.387 and the “Rhobtb3 value_2” value was 13.6471. For the same compound, the “Rnft1 value_2” value was 17.8003, the “Ror1 value_2” value was 6.1328 and the “Rprd1a value_2” value was 7.118. The “Runx2 value_2” value was 3.741, the “Ryk value_2” value was 55.3732 and the “S100a1 value_2” value was 70.3658. The “Sardh value_2” value was 3.193, the “Sat2 value_2” value was 5.26 and the “Sce1 value_2” value was 3.6703. For the same compound, the “Selm value_2” value was 80.5867, the “Sepx1 value_2” value was 93.1036 and the “Serpine2 value_2” value was 7.825. The “Serpinh1 value_2” value was 1190.39, the “Setd7 value_2” value was 32.7601 and the “Sfrp1 value_2” value was 33.2277. For the same compound, the “Sgce value_2” value was 7.751, the “Sh3gl3 value_2” value was 1.09 and the “Sh3kbp1 value_2” value was 10.1373. For the same compound, the “Shisa3 value_2” value was 4.345, the “Skp2 value_2” value was 4.997 and the “Slc2a10 value_2” value was 2.062. The “Slc35a2 value_2” value was 23.1121, the “Slc44a2 value_2” value was 59.6308 and the “Slit3 value_2” value was 39.3977. For the same compound, the “Snai1 value_2” value was 35.4904, the “Snta1 value_2” value was 25.2902 and the “Snx30 value_2” value was 13.1255. The “Sparcl1 value_2” value was 5.629, the “Speg value_2” value was 7.409 and the “Spp1 value_2” value was 226.746. The “Srgap3 value_2” value was 1.389 and the “Srpx value_2” value was 2.6404.
